Laboratory results from patent US20250127863A1, “ANTIMICROBIAL PEPTIDE FOR ONYCHOMYCOSIS” (CBMR SCIENTIFIC NANOSCIENCE B.V., priority 2019, published 2025).
No end group written: not given here.

What was measured:
Experiment in all cases: MIC90 growth inhibition
Type in all cases: cell-based
[1] = tested on: Absidia corymbifera; conditions: RPMI 1640 one-fourth strength
Description: (§1) The minimum inhibitory concentration (MIC) value is defined as the lowest sample concentration that inhibited growth. In the Examples, the MIC90 value is presented, which MIC90 values are determined according to established methods known to the person with the skills in the relevant art. Experiments; 1×10E5 CFU of various strains/ml were incubated for 24-48 h at 37° C. in 4× diluted medium of RPMI 1640 with the indicated concentrations of antimicrobial peptide hLF(1-11) [SEQ ID NO: 3]. As controls various strains cells were incubated for 24-48 h at 37° C. with no agent (antimicrobial peptide), and subsequently, growth of the microbial organism (e.g. yeast, bacterium) was monitored by using spectrophotometry with a spectrophotometer at 620 nm. […] ND=Not done. Representative single assay data are listed rather than a range, for clarity reasons and for ease of comparison of peptide efficacy. The MIC was calculated as the lowest antibiotic (antimicrobial peptide) concentration at which growth of the assessed yeast or bacterium (microbe) was inhibited (inhibitory concentration IC90).

[2] = tested on: Altematria spp.; conditions: RPMI 1640 one-fourth strength
Description: as §1

[3] = tested on: Aspergillus sydowii; conditions: RPMI 1640 one-fourth strength
Description: as §1

[4] = tested on: Aspergillus versicolor; conditions: RPMI 1640 one-fourth strength
Description: as §1

[5] = tested on: Cladosporium spp; conditions: RPMI 1640 one-fourth strength
Description: as §1

[6] = tested on: Cryptococcus albidus; conditions: RPMI 1640 one-fourth strength
Description: as §1

[7] = tested on: Cryptococcus neoformans ▴ SKN7 (UMC); conditions: genetically modified type species, RPMI 1640 one-fourth strength
Description: as §1

[8] = tested on: Cryptococcus neoformans; conditions: RPMI 1640 one-fourth strength
Description: as §1

[9] = tested on: Enterococcus faecalis; conditions: RPMI 1640 one-fourth strength
Description: as §1

[10] = tested on: Entrobacter cloacae; conditions: RPMI 1640 one-fourth strength
Description: as §1

[11] = tested on: Epidermophyton floccosum; conditions: RPMI 1640 one-fourth strength
Description: as §1

[12] = tested on: Exophiala dermatitidis; conditions: RPMI 1640 one-fourth strength
Description: as §1

[13] = tested on: Fonsecaea pedrosoi; conditions: RPMI 1640 one-fourth strength
Description: as §1

[14] = tested on: Fusarium oxysporum; conditions: RPMI 1640 one-fourth strength
Description: as §1

[15] = tested on: Fusarium solani; conditions: RPMI 1640 one-fourth strength
Description: as §1

[16] = tested on: Helicobacter pylori; conditions: RPMI 1640 one-fourth strength
Description: as §1

[17] = tested on: Malassezia furfur CBS 1878; conditions: RPMI 1640 one-fourth strength
Description: as §1

[18] = tested on: Malassezia furfur CBS-7982; conditions: RPMI 1640 one-fourth strength
Description: as §1

[19] = tested on: Malassezia restricta CBS 7877; conditions: RPMI 1640 one-fourth strength
Description: as §1

[20] = tested on: Microsporum canis; conditions: RPMI 1640 one-fourth strength
Description: as §1

[21] = tested on: Nannizzia otae; conditions: RPMI 1640 one-fourth strength
Description: as §1

[22] = tested on: Paracoccidioides brasiliensis; conditions: RPMI 1640 one-fourth strength
Description: as §1

[23] = tested on: Penicillium digitatum; conditions: RPMI 1640 one-fourth strength
Description: as §1

[24] = tested on: Penicillium italicum; conditions: RPMI 1640 one-fourth strength
Description: as §1

[25] = tested on: Penicillium pinophilum; conditions: RPMI 1640 one-fourth strength
Description: as §1

[26] = tested on: Penicillium spp. such as aff. Carbonarius; conditions: RPMI 1640 one-fourth strength
Description: as §1

[27] = tested on: Phialophora verrucosa; conditions: RPMI 1640 one-fourth strength
Description: as §1

[28] = tested on: Saccharomyces cerivisiae ATCC 2602; conditions: RPMI 1640 one-fourth strength
Description: as §1

[29] = tested on: Sporotrichium spp; conditions: RPMI 1640 one-fourth strength
Description: as §1

[30] = tested on: Staphylococcus aureus (MRSA); conditions: RPMI 1640 one-fourth strength
Description: as §1

[31] = tested on: Staphylococcus aureus 10649; conditions: RPMI 1640 one-fourth strength
Description: as §1

[32] = tested on: Staphylococcus aureus 29213; conditions: RPMI 1640 one-fourth strength
Description: as §1

[33] = tested on: Streptococcus mutans; conditions: RPMI 1640 one-fourth strength
Description: as §1

[34] = tested on: Streptocococcus mitis 032; conditions: RPMI 1640 one-fourth strength
Description: as §1

[35] = tested on: Trichophyton interdigitale; conditions: RPMI 1640 one-fourth strength
Description: as §1

[36] = tested on: Trichophyton mucoides; conditions: RPMI 1640 one-fourth strength
Description: as §1

[37] = tested on: Trichophyton rubrum; conditions: RPMI 1640 one-fourth strength
Description: as §1

[38] = tested on: Trichophyton spp; conditions: Trichophyton spp (Table 1); RPMI 1640 one-fourth strength
Description: as §1

[39] = tested on: Trichophyton violaceum; conditions: RPMI 1640 one-fourth strength
Description: as §1

[40] = tested on: Trichosporon beigelii; conditions: RPMI 1640 one-fourth strength
Description: as §1

[41] = tested on: Trichosporon cutaneum; conditions: RPMI 1640 one-fourth strength
Description: as §1

[42] = tested on: Vibrio cholerae; conditions: RPMI 1640 one-fourth strength
Description: as §1

[43] = tested on: Zygosaccharomyces bailii; conditions: RPMI 1640 one-fourth strength
Description: as §1

[44] = tested on: Zygosaccharomyces bisprous; conditions: RPMI 1640 one-fourth strength
Description: as §1

GRRRRSVQWCA [hLF1-11, Gly Arg Arg Arg Arg Ser Val Gln Trp Cys Ala]
Inhibitory concentration MIC (MIC90) [1]: MIC = 40 μg/ml
Inhibitory concentration MIC (MIC90) [2]: MIC = 16 μM
Inhibitory concentration MIC (MIC90) [3]: MIC = 2.5-12.5 μg/ml
Inhibitory concentration MIC (MIC90) [4]: MIC = 10 μg/ml
Inhibitory concentration MIC (MIC90) [5]: MIC = 3.1-12.5 μg/ml
Inhibitory concentration MIC (MIC90) [6]: MIC = 25 μg/ml
Inhibitory concentration MIC (MIC90) [7]: MIC = 6.3 μg/ml
Inhibitory concentration MIC (MIC90) [8]: MIC = 12.5-50 μg/mL
Inhibitory concentration MIC (MIC90) [9]: MIC = 6.3 μg/ml
Inhibitory concentration MIC (MIC90) [10]: MIC = 6.3 μg/ml
Inhibitory concentration MIC (MIC90) [11]: MIC = 0.31-2.5 μg/ml
Inhibitory concentration MIC (MIC90) [12]: MIC = 2 μg/ml
Inhibitory concentration MIC (MIC90) [13]: MIC = 5 μg/ml
Inhibitory concentration MIC (MIC90) [14]: MIC = 8-16 μM
Inhibitory concentration MIC (MIC90) [15]: MIC = 8-16 μM
Inhibitory concentration MIC (MIC90) [16]: MIC = 12.5-50 μg/ml
Inhibitory concentration MIC (MIC90) [17]: MIC = 12.5-50 μg/mL
Inhibitory concentration MIC (MIC90) [18]: MIC = 100 μg/ml
Inhibitory concentration MIC (MIC90) [19]: MIC = 50 μg/mL
Inhibitory concentration MIC (MIC90) [20]: MIC = 40 μg/ml
Inhibitory concentration MIC (MIC90) [21]: MIC = 60 μg/ml
Inhibitory concentration MIC (MIC90) [22]: MIC = 0.63-1.25 μg/ml
Inhibitory concentration MIC (MIC90) [23]: MIC = 8 μM
Inhibitory concentration MIC (MIC90) [24]: MIC = 8 μM
Inhibitory concentration MIC (MIC90) [25]: MIC = 45 μg/ml
Inhibitory concentration MIC (MIC90) [26]: MIC = 45 μg/ml
Inhibitory concentration MIC (MIC90) [27]: MIC = 5-10 μg/ml
Inhibitory concentration MIC (MIC90) [28]: MIC = 25 μg/ml
Inhibitory concentration MIC (MIC90) [29]: MIC = 40 μg/ml
Inhibitory concentration MIC (MIC90) [30]: MIC = 1.6 μg/ml
Inhibitory concentration MIC (MIC90) [31]: MIC = 1.6 μg/ml
Inhibitory concentration MIC (MIC90) [32]: MIC = 3.1 μg/ml
Inhibitory concentration MIC (MIC90) [33]: MIC = 3.1 μg/ml
Inhibitory concentration MIC (MIC90) [34]: MIC = 6.3 μg/ml
Inhibitory concentration MIC (MIC90) [35]: MIC = 6.3-45 μg/ml
Inhibitory concentration MIC (MIC90) [36]: MIC = 12.5-50 μg/ml
Inhibitory concentration MIC (MIC90) [37]: MIC = 13-60 μg/ml
Inhibitory concentration MIC (MIC90) [38]: MIC = 6.3-45 μg/ml
Inhibitory concentration MIC (MIC90) [39]: MIC = 40 μg/ml
Inhibitory concentration MIC (MIC90) [40]: MIC = 40 μg/ml
Inhibitory concentration MIC (MIC90) [41]: MIC = 1.25-18 μg/ml
Inhibitory concentration MIC (MIC90) [42]: MIC = 12.5 μg/ml
Inhibitory concentration MIC (MIC90) [43]: MIC = 8 μM
Inhibitory concentration MIC (MIC90) [44]: MIC = 40 μg/ml
